Where two headings read alike, the source gives them in different places.
Key:
5-HT3 receptor [1] = biological target: T1, 5-HT3 receptor (Rattus norvegicus, UniProt P35563); experiment: 5-HT3 receptor stimulating action (Bezold-Jarisch reflex evoking action) in anesthetized rat, i.v.; type: in vivo, rat (male Wistar); settings: for ED50: iv, read-out: BJ reflex evoking activity ED50
T1 construct: Male Wistar rats, 9 weeks old, were anesthetized with urethane; from tissue; host or cells: whole animal in vivo: anesthetized male Wistar rat (endogenous receptor; tissue not given)
T1 sequence (P35563 24-483): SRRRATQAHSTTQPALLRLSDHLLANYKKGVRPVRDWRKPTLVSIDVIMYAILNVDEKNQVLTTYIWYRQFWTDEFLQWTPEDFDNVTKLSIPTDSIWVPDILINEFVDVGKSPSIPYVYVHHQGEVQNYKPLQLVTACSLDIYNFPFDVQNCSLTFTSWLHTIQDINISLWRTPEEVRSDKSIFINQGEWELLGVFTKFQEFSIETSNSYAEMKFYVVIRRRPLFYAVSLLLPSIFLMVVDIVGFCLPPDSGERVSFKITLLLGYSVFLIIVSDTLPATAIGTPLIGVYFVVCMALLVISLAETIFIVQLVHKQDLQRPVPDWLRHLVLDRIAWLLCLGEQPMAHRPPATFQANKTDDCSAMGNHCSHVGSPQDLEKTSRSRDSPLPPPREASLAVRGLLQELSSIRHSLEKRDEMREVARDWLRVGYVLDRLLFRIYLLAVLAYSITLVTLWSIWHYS
Method: Male Wistar rats, 9 weeks old, were anesthetized with urethane 1 g/kg i.p. and the blood pressure and the heart rate were determined under artificial ventilation.
1) 5-HT3 receptor stimulating action (Bezold-Jarisch reflex evoking action)

5-HT3 receptor [2] = biological target: T1, 5-HT3 receptor; experiment: Effects of 5-HT3 receptor antagonists on the action of the compound of the present invention (decreases in heart rate and blood pressure); type: in vivo, rat (male Wistar); settings: GR38032F 30 μg/kg i.v. or ICS 205-930 0.1-1 μg/kg i.v., 10 minutes before the compound of the present invention
Method: Male Wistar rats, 9 weeks old, were anesthetized with urethane 1 g/kg i.p. and the blood pressure and the heart rate were determined under artificial ventilation. […] In addition, it was confirmed by using 5-HT3 receptor antagonists that the changes caused by administration of the compound of the present invention were 5-HT3 receptor-mediated responses.
2) Effects of 5-HT3 receptor antagonists on the action of the compound of the present invention
GR38032F (30 μg/kg i.v.) or ICS 205-930 (0.1-1 μg/kg i.v.), 10 minutes before administration of the compound of the present invention.

| SMILES | BJ reflex evoking activity Emax (maximal bradycardiac response) (5-HT3 receptor [1]; i.v., anesthetized rat) [beats/min] | Bezold-Jarisch reflex evoking activity, potency relative to serotonin (5-HT3 receptor [1]; i.v., rat, versus serotonin) | ED50 (5-HT3 receptor [1]; anesthetized rat) [mg/kg] | inhibition by 5-HT3 receptor antagonist of the decreases in heart rate and blood pressure induced by the compound of the present invention (5-HT3 receptor [2]) | ED50 (5-HT3 receptor [1]; rat) [mg/kg] |
| --- | --- | --- | --- | --- | --- |
| COc1ccccc1Nc1nc2c(s1)CN(C)CC2.O=C(O)/C=C/C(=O)O [Example 1, 2-(o-methoxyanilino)-5-methyl-4,5,6,7-tetrahydrothiazolo[5,4-c]pyridine fumarate] | 205.8 | about 5 fold | 0.00301 |  |  |
| Cc1nccn1CC1CCc2c(c3ccccc3n2C)C1=O (racemic) [GR38032F] |  |  |  | competitively inhibited |  |
| CN1C2CCC1CC(OC(=O)c1c[nH]c3ccccc13)C2 (stereo not shown) [ICS 205-930] |  |  |  | competitively inhibited |  |
| Cc1[nH]c2ccc(O)cc2c1CCN [2-Methylserotonin, 2-methylserotonin] | 259.0 |  |  |  | 0.0374 |

From patent US5656637A, “Thiazole derivatives” (Yamanouchi Pharmaceutical Co., Ltd., priority 1990, dated 1997)
